Consider 2 molecules from patent US20180147198A1, “COMBINATIONS OF PFKFB3 INHIBITORS AND IMMUNE CHECKPOINT INHIBITORS TO TREAT CANCER” (UNIVERSITY OF LOUISVILLE RESEARCH FOUNDATION, INC., priority 2015, published 2018).

For data set [1], the system named is imiquimod-induced psoriasis. Particulars: mice; cited from earlier work.
Data set [2] has as its system delayed type hypersensitivity to methylated BSA. Particulars: mice; cited from earlier work.
The subject of data set [3] is human CD3+ T cells. Particulars: 1-10 μM; anti-CD3/anti-CD28 microbead stimulation; cited from earlier work.
Data set [4] relates to PBMCs. As to the kind of experiment: Immunophenotyping by flow cytometry of PBMCs of 4 metastatic cancer patients. The class given is in vivo, human. Particulars: of 4 patients; after 15 days of administration. How it is done: (§1) 18 cancer patients completed 2 cycles of 24-470 mg/M^2 PFK-158; 5 of these patients experienced stabilization of their disease (i.e. no growth and no new tumors) and tumor regressions have been observed in multiple patients. For example, a person with renal cell carcinoma who had progressed after all available FDA-approved agents including mTOR and VEGFR inhibitors and IL-2 entered the study (470 mg/M^2). They experienced stabilization of disease by immune-related response criteria (26% reduction in maximum diameters) with multiple tumors regressing and has entered their seventh month of treatment. Of these 18 patients, immunophenotyping by flow cytometry on 4 patients' PBMCs has been carried out. These four patients were administered PFK-158 for 2 weeks and PBMCs were collected at baseline, day 15, and then analyzed by flow cytometry for CD3+CD4+il-17+ cells and CD8+CD137+ T cells.
For orientation: Flow cytometry measures light scatter and fluorescence of single cells or particles in a stream.

The subject of data set [5] is peripheral blood mononuclear cells. As to the kind of experiment: Flow cytometry of peripheral blood mononuclear cells of a breast cancer patient receiving PFK-158. Particulars: after 1 week, persisted through treatment. The class given is in vivo, human. How it is done:
An unexpected stability of tumors in multiple patients receiving PFK-158 at doses that were considered to be sub-therapeutic has been observed. […] This breast adenocarcinoma patient received 96 mg/M^2 of PFK-158 every other day for three weeks followed by a one week rest—this cycle was repeated for a total of four cycles. Peripheral blood mononuclear cells were collected on days 1, 8, 15, 22 and 62 and flow cytometry was conducted for a multitude of immunosuppressive cells and activated T cells. […] These cells are the main CD8+ T cells that can infiltrate tumors and differentiate into cytolytic T cells which kill tumor cells. […]
Given the decrease in Th17 cells and increase in effector CD8^+ T cells observed after PFK-158 administration, the ability of PFK-158 to cause an increase in terminally-differentiated CD8^+ effector cells was examined. CD8^+CD57^+CD27^− TCD28^− The breast cancer patient described in Example 7 was administered PFK-158 for 1 cycle and PBMCs were collected at baseline, day 8, 15, 22, and then analyzed for CD8^+CD57^+CD27^− TCD28^− T cells and PD-1. […]
CD57 is a terminally sulfated carbohydrate that is selectively expressed on antigen-specific, and functionally competent memory/effector CD8^+ T cells. […] PBMCs were collected at baseline, day 8, 15, and 22 and CD8^+CD57^+CD27^− CD28^− T cells were analyzed for CD57 expression. […]

Data set [6] has as its system Th17 cells. As to the kind of experiment: IL-17A production (ELISA) during in vitro Th17 differentiation. The class given is cell-based, human. Particulars: PFK-158 every two days of culture, FIG. 17E,F. From the text: (§2) The differentiation of Th17 cells from naïve CD4^+ T cells was induced and, for γδT17 cells, naïve Vγ9Vδ2 T cells were isolated from healthy donors and polarized into IL-17 producing γ6T cells using established methods.
(§3) Human naïve CD4^+ T cells differentiated into Th17 cells or sorted human naïve Vγ9Vδ2 T cells were polarized in vitro and analyzed for PFKFB2-4 mRNA (FIG. 17 A,B), F26BP, and PFKFB3 protein (FIG. 17 C,D). The CD4^+ T cells (during in vitro Th17 differentiation) and Vγ9Vδ2 T cells (during in vitro polarization) were exposed to vehicle (DMSO) or the indicated concentrations of PFK-158 (every two days of the culture period) and IL-17A production was quantified by ELISA (FIG. 17 E,F).
For orientation: ELISA stands for enzyme-linked immunosorbent assay.

The test system of data set [7] is cancer patients. As to the kind of experiment: Phase 1 trial of PFK-158 in cancer patients (clinical response, tolerability). Format: in vivo. On the procedure:
A phase 1 trial of PFK-158 in cancer patients is currently being conducted at Georgetown University, UT Southwestern, Md. Anderson Cancer Center and the U. of Louisville (clinicaltrials.gov# NCT02044861). […] Institutional investigators have observed partial tumor regressions in 3 patients with ocular melanoma, ovarian cancer and renal cell carcinoma and de novo stabilization of tumor burden in 2 patients (breast and adenoid cystic carcinoma). A person with ocular melanoma was administered 24 mg/M^2 in cohort 1 of the phase 1 trial of PFK-158—a dose that is markedly lower than that required to cause the known cytotoxic effects of PFK-158. […] Over the course of six months of therapy, several of the patient's hepatic metastases first became necrotic after 2 monthly cycles (hypoattenuation appears dark on CT imaging) and then shrunk after 6 cycles (FIG. 18).
The patient was administered PFK-158 for 4 cycles and their bony metastases were deemed to be stable (FIG. 19, left two panels) and several liver metastases became necrotic (FIG. 19, right panel).
as §1

Data set [8] has as its system γδT17 cells. As to the kind of experiment: IL-17A production (ELISA) during in vitro polarization of Vγ9Vδ2 T cells. The class given is cell-based, human. Particulars: PFK-158 every two days of culture, FIG. 17E,F.
Description: as §2, §3

The structures appear in SMILES notation.

As to `O=C(C=Cc1cccnc1)c1ccncc1` [3PO, 3-(3-pyridinyl)-1-(4-pyridinyl)-2-propen-1-one], the “development of imiquimod-induced psoriasis” value in data set [1] is given as “suppressed”. Moreover, in data set [2], the “development of delayed type hypersensitivity to methylated BSA” value is “suppressed”. Moreover, the “stimulation of F2,6BP synthesis, 2-[1-14C]-deoxy-D-glucose uptake, lactate secretion, TNF-α secretion and T cell aggregation and proliferation” value in data set [3] is recorded as “markedly attenuated”.
As for `O=C(/C=C/c1ccc2ccc(C(F)(F)F)cc2n1)c1ccncc1` [PFK-158, (E)-1-(pyridyn-4-yl)-3-(7-(trifluoromethyl)quinolin-2-yl)-prop-2-en-1-one], the “patients with a reduction in frequency of Th17 cells” value in data set [4] turned out to be 4 patients. In addition, the “increase in circulating cancer-reactive CD8+/CD57+/CD27-/CD28- T cells” value in data set [5] is 36%. The “concentration reducing IL-17A, fold less than required to inhibit neoplastic and endothelial cells growth” value in data set [6] and in data set [8] was ~10 fold throughout. The “patients with de novo stabilization of tumor burden” value in data set [7] (breast and adenoid cystic carcinoma) is listed as 2 patients. The “patients with partial tumor regressions” value in data set [7] (ocular melanoma, ovarian cancer and renal cell carcinoma) was 3 patients. Besides, in data set [7] (of 18 cancer patients who completed 2 cycles of 24-470 mg/M^2), the “patients with stabilization of their disease” value worked out at 5 patients. Also, in data set [7] (person with renal cell carcinoma, 470 mg/M^2), the “reduction in maximum diameters (immune-related response criteria)” value is 26%. Moreover, the maximum tolerated dose result in data set [7] (phase 1 trial, entered cohort 7, currently at 650 mg/M^2) was “without reaching a maximum tolerated dose”.
